Data reported in publication PMC10584170, “Machine learning-based phenotypic imaging to characterise the targetable biology of Plasmodium falciparum male gametocytes for the development of transmission-blocking antimalarials” (PLOS Pathogens, 2023).

Experiments:
[1] = system: P. falciparum male gametocytes; assay: P. falciparum Dual Gamete Formation Assay (PfDGFA), male readout (exflagellation); assay type: cell-based, Plasmodium falciparum NF54; conditions: for Average inhibition male (%): average of replicates; for % inhibition male (individual replicates) R1: replicate R1; for % inhibition male (individual replicates) R3: replicate R3; for % inhibition male (individual replicates) R4: replicate R4; for Activity: hit = >50% inhibition in male or female readout in at least 3 replicates, 0 = no class assigned
Outline: (§1)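 Male and female gamete formation were quantified by microscopy image analysis following 24 h incubation of mature NF54 gametocytes with compound and activation at 28°C with xanthurenic acid.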

[2] = system: P. falciparum female gametocytes; assay: P. falciparum Dual Gamete Formation Assay (PfDGFA), female readout (Pfs25-positive female gametes); assay type: cell-based, Plasmodium falciparum NF54; conditions: for Average inhibition female (%): average of replicates; for % inhibition female (individual replicates) R1: replicate R1; for % inhibition female (individual replicates) R3: replicate R3; for % inhibition female (individual replicates) R4: replicate R4
Outline: as §1

[3] = PfDGFA at 2µM, 24h preincubation with gametocytes
[4] = number of replicates with >50% inhibition in the male readout, 2µM
[5] = number of replicates with >50% inhibition in the female readout, 2µM
[6] = 2µM, 24h preincubation with gametocytes prior to induction of gametogenesis
[7] = 2µM, 24h preincubation, number of replicates with >50% inhibition in the male readout
[8] = 2µM, 24h preincubation, number of replicates with >50% inhibition in the female readout
[9] = PfDGFA at 2µM, 24h preincubation with gametocytes prior to induction of gametogenesis
[10] = PfDGFA at 2µM, 24h preincubation
[11] = 2µM, 24h preincubation, hits selected on >50% inhibition in the male readout across replicates
[12] = 2µM, 24h preincubation, hits selected on >50% inhibition in the female readout across replicates

Structure (SMILES) | Average inhibition male (%) [1, 6] [%] | % inhibition male (individual replicates) R1 [1, 6] [%] | % inhibition male (individual replicates) R3 [1, 6] [%] | % inhibition male (individual replicates) R4 [1, 6] [%] | HitlevelM [1, 7] | Average inhibition female (%) [2, 6] [%] | % inhibition female (individual replicates) R1 [2, 6] [%] | % inhibition female (individual replicates) R3 [2, 6] [%] | % inhibition female (individual replicates) R4 [2, 6] [%] | HitlevelF [2, 8] | HitlevelM [1, 11] | Activity [1, 10] | HitlevelF [2, 12] | further results
O=C(CCC1CCCC1)N(Cc1ccc(-c2ccc(CNCCc3ccccc3)cc2)cc1)C1CCCNC1.O=C(O)C(F)(F)F (stereo not shown) [TCMDC-141444] |  |  |  |  |  |  |  |  |  |  |  |  |  | Average inhibition male (%) [1, 3]: 71.0%; % inhibition male (individual replicates) R1 [1, 3]: 62.4%; % inhibition male (individual replicates) R3 [1, 3]: 42.1%; % inhibition male (individual replicates) R4 [1, 3]: 88.2%; HitlevelM [1, 4]: 3; Average inhibition female (%) [2, 3]: 21.8%; % inhibition female (individual replicates) R1 [2, 3]: 31.1%; % inhibition female (individual replicates) R3 [2, 3]: 20.3%; % inhibition female (individual replicates) R4 [2, 3]: 22.2%; HitlevelF [2, 5]: 0
CC(C)CC(=O)N(Cc1ccc(-c2ccc(CNC3Cc4ccccc4C3)cc2)cc1)C1CCNCC1.O=C(O)C(F)(F)F [TCMDC-141449] | 48.3 | 49.9 | 28.4 | 64.9 | 2 | 21.5 | 24.4 | 9.8 | 34.2 | 0 |  |  |  | 
O=C(COc1ccccc1)N(Cc1ccc(-c2ccc(CNC3Cc4ccccc4C3)cc2)cc1)C1CCNCC1.O=C(O)C(F)(F)F [TCMDC-141450] |  |  |  |  |  |  |  |  |  |  |  |  |  | % inhibition male (individual replicates) R1 [1, 9]: 15.3%; % inhibition male (individual replicates) R3 [1, 9]: -5.5%; % inhibition male (individual replicates) R4 [1, 9]: 33.6%; Average inhibition male (%) [1, 10]: 16.7%; % inhibition female (individual replicates) R1 [2, 9]: 8.2%; % inhibition female (individual replicates) R3 [2, 9]: -25.4%; % inhibition female (individual replicates) R4 [2, 9]: -2.6%; Average inhibition female (%) [2, 10]: -0.0825%
CN(C)CCCNCc1ccc(-c2ccc(CNCCOc3ccccc3)cc2)cc1.O=C(O)C(F)(F)F [TCMDC-141457] |  |  |  |  |  |  |  |  |  |  |  |  |  | % inhibition male (individual replicates) R1 [1, 9]: 5.2%; % inhibition male (individual replicates) R3 [1, 9]: 1.0%; % inhibition male (individual replicates) R4 [1, 9]: 30.2%; Average inhibition male (%) [1, 10]: 9.2%; % inhibition female (individual replicates) R1 [2, 9]: 3.5%; % inhibition female (individual replicates) R3 [2, 9]: -18.9%; % inhibition female (individual replicates) R4 [2, 9]: -9.2%; Average inhibition female (%) [2, 10]: -4.9%
COc1cccc(CCN(Cc2ccccc2-c2ccc(CNC3CC(C)(C)NC(C)(C)C3)cc2)C(=O)NC2CCCCC2)c1.Cl [TCMDC-141577] | 1.5 | 8.1 | -2.0 | 2.2 |  | 13.0 | 16.8 | -15.5 | 31.4 |  | 0 | 0 | 0 | 
CN(C)CCCNc1nccc(N(C)c2ccc(NC(=O)Nc3cc(C(F)(F)F)ccc3F)cc2)n1.O=C(O)C(F)(F)F [TCMDC-141633] | 62.2 | 40.8 |  | 63.9 |  | 13.3 | 14.0 | 9.3 | 15.1 |  | 2 | 0 | 0 | 
O=C(O)C(F)(F)F.c1ccc(CCNCc2ccc(-c3ccc(CNC4CCN(Cc5ccccc5)CC4)cc3)nc2)cc1 [TCMDC-141649] | 11.3 | 9.5 | -1.4 | 30.2 |  | 11.9 | 20.3 | -13.0 | 18.4 |  | 0 | 0 | 0 | 
CCCCCCN1CCC(NCc2ccc(OCCN3CCCC3)cc2)CC1.O=C(O)C(F)(F)F [TCMDC-141663] | 7.0 | 26.8 | -12.7 | -11.8 |  | 15.8 | 20.0 | 13.5 | 15.0 |  | 0 | 0 | 0 | 
CN1CCc2cc(NS(=O)(=O)c3ccc(-c4ccc(Cl)cc4)cc3)c(OCCCN3CCCCC3)cc2CC1.Cl [TCMDC-141754] |  |  |  |  |  |  |  |  |  |  |  |  |  | Average inhibition male (%) [1, 3]: 76.4%; % inhibition male (individual replicates) R1 [1, 3]: 81.6%; % inhibition male (individual replicates) R3 [1, 3]: 46.2%; % inhibition male (individual replicates) R4 [1, 3]: 86.2%; HitlevelM [1, 4]: 3; Average inhibition female (%) [2, 3]: 21.5%; % inhibition female (individual replicates) R1 [2, 3]: 25.0%; % inhibition female (individual replicates) R3 [2, 3]: 13.0%; % inhibition female (individual replicates) R4 [2, 3]: 19.2%; HitlevelF [2, 5]: 0
Cl.Clc1ccc(C2CCN(CCCOc3ccc4c(c3)CCNCC4)CC2)cc1 [TCMDC-141782] | 47.0 | 45.1 | 27.8 | 64.2 | 2 | 28.4 | 14.5 | 2.3 | 70.0 | 1 |  |  |  | 
Cc1cc(F)ccc1-c1nc(NCCCNCCc2ccccc2)nc2c1ccc(=O)n2-c1c(F)cccc1F.O=C(O)C(F)(F)F [TCMDC-141804] | 11.7 | 17.7 | -28.8 | 37.6 | 0 | 33.0 | 27.9 | 6.6 | 62.0 | 1 |  |  |  | 
Cc1c(Cn2ncc(N3CCC(N)CC3)c(Cl)c2=O)cccc1NC(=O)Nc1ccc(-c2ccccc2)cc1.O=C(O)C(F)(F)F [TCMDC-141931] | 36.5 | 42.7 | 3.4 | 40.2 | 1 | 48.9 | 32.2 | 19.7 | 64.5 | 2 |  |  |  | 
Nc1nc(N)c2cc(CNc3ccc(Cl)c(Cl)c3)ccc2n1 [TCMDC-141974] |  |  |  |  |  |  |  |  |  |  |  |  |  | % inhibition male (individual replicates) R1 [1, 9]: 19.3%; % inhibition male (individual replicates) R3 [1, 9]: 26.8%; % inhibition male (individual replicates) R4 [1, 9]: 9.5%; Average inhibition male (%) [1, 10]: 20.3%; % inhibition female (individual replicates) R1 [2, 9]: 1.5%; % inhibition female (individual replicates) R3 [2, 9]: -5.9%; % inhibition female (individual replicates) R4 [2, 9]: 0.5%; Average inhibition female (%) [2, 10]: -1.4%
